# From US12252493B2, “Imidazo[1,2-c]pyrimidine derivatives as PRC2 inhibitors for treating cancer” (Mirati Therapeutics, Inc., priority 2019, dated 2025)
# Legend:
# [1] = system: Karpas 422 cells expressing mutant EZH2 (Y641N); assay: Karpas 422 cell viability (Cell Titre Glo) assay; type: cell-based, human; conditions: Homo sapiens, CTG viability, time point (Day 4, Day 7 or Day 11) not given, read-out: IC50, Inhibiting Proliferation of Cells Expressing an Activating Mutant Form of EZH2
# Experimental: Karpas 422 cell line is a human B cell non-Hodgkin's lymphoma cell line established from a patient having DLBCL. This EZH2 heterozygotic cell line expresses a mutant form of EZH2 enzyme (Y641N) that increases histone H3 methylation and this mutation has been implicated in the tumorgenesis of lymphomas, such as DLBCL.
# Karpas 422 cells (PHE cat no., 06101702) were cultured in RPMI medium supplemented with 20% fetal bovine serum and 1% penicillin/1% streptomycin and plated at a density of 1000 cells/90 μl/well in 96 well white assay plates. A dose response curve for compounds of the present invention was determined by adding a 10 μl aliquot of stock solutions of varying concentrations of compounds to the same medium in each well, over a concentration range of 10 μM using 3-fold dilutions to a final concentration of 1.5 nM. The plates were incubated at 37° C. for predetermined time periods, Day 4, Day 7, or Day 11, and the viability of the cells was measured using a CTG assay kit (Cell Titre Glo; Promega cat. no G7573) on Day 4 and Day 7 in accordance with the manufacturer's instructions.
# For the viability assay for the Day 11 plates, the plates were subjected to centrifugation at 1100 rpm for five minutes on Day 7 and the supernatant was removed by aspiration. The cells were resuspended in 90 μl aliquot of the appropriate growth medium lacking the compound followed by addition of 10 μl of a 10× stock of the same compound at the same concentration. The viability of the Day 11 cells was measured using the CTG assay kit described above in accordance with the manufacturer's instructions. The IC50 values for each compound at each predetermined time point were calculated using Graph pad PRISM software and the results are shown in Table 7. Key: A=≤250 nM; B=>250 nM-≤500 nM; C=>500 nM-≤5 μM and N.D.=not determined.
# [2] = system: PRC2-mediated histone H3 methylation (H3 Lys27 trimethylation) in Pfeiffer cells expressing mutant EZH2 (A677G); assay: Tri-Methyl Histone H3 (Lys 27) sandwich ELISA in Pfeiffer cells; type: cell-based, human; conditions: Homo sapiens; Pfeiffer cells, 96 hours incubation, ELISA; read-out: IC50, Inhibition of EZH2-mediated Histone H3 Trimethylation
# Description: The Pfeiffer cell line was established from a […] from a patient having metastatic diffuse large B-cell lymphoma (DLBCL). This cell line expresses a mutant form of the EZH2 enzyme (A677G) that results in enhanced EZH2 activity leading to increased methylation of histone H3 Lys27. Increased trimethylation of histone H3 Lys27 is believed to be implicated in tumorgenesis and poor clinical prognosis in lymphomas (McCabe et al., (2012) Nature 492:108-112).
# Inhibition of PRC2-mediated histone H3 methylation by compounds of Formula (I) was measured by ELISA using a Tri-Methyl Histone H3 (Lys 27) Sandwich ELISA Kit (Cell Signaling Tech #7866C) in accordance with the manufacturer's instructions. Briefly, Pfeiffer cells were cultured in RPMI medium supplemented with 10% fetal bovine serum and 1% penicillin and 1% streptomycin in 96 well culture plates at 37° C. to a density of 8000 cells/90 μl/well and the cells were harvested. A series of 3-fold serial dilutions of each test compound of Formula (I) were prepared in RPMI medium and added to the cells at final concentrations ranging from 1 μM to 0.15 nM. The plates were incubated at 37° C. for 96 hours.
# After incubation, the cells were pelleted by centrifugation in a pre-cooled 4° C. rotor at 1,100 rpm for 10 min and the supernatant was removed by aspiration. The cell pellet was resuspended in 55 μl of Lysis Buffer (0.4M HCl) and incubated on ice with periodic shaking for 30 minutes. The lysed cells were subjected to centrifugation at 4,200 rpm for 10 min at 4° C. and the supernatant containing acid-soluble proteins was collected and the remainder discarded. The acid-soluble proteins were brought to a neutral pH by the addition of 20 μl of Neutralization Buffer (1 M Sodium phosphate, dibasic (pH 12.5), 2.5 mM DTT and 1 mM PMSF) and the neutralized lysates were analyzed by ELISA.
# A 65 μl aliquot of each cell lysate was added to a well of a microwell strip, the microwells were sealed using tape and incubated either at 37° C. for two hours or at 4° C. overnight. After incubation, the tape was removed at the microwells were washed four times using 200 μl of 1× Wash Buffer. To each washed microwell, a 100 μl aliquot of an anti-trimethyl histone H3 Lys27 Detection Antibody solution was added and the microwells were incubated at 37° C. for one hour. The Detection Antibody solution was removed by aspiration and the wells were washed four times each using 200 μl of 1× Wash Buffer.
# A 100 μl aliquot of an HRP-linked secondary antibody was added to each well, the wells were sealed with tape and incubated at 37° C. for 30 min. The HRP-linked secondary antibody solution was removed by aspiration and the wells were washed four times using 200 μl of 1× Wash Buffer. A 100 μl aliquot of a TMB substrate was added to each well, the wells were sealed with tape and incubated at 37° C. for 10 min or 25° C. for 30 min. The reaction was stopped by the addition of 100 μl aliquot of a STOP solution and the plate was shaken briefly. The degree of histone H3 trimethylation was determined using a spectrophotometric readout by measuring the absorbance at 450 nm and then calculating the amount of trimethylated histone H3. Key: A=≤250 nM; B=>250 nM-≤500 nM; and C=>500 nM-≤5 μM.
# [3] = biological target: purified human, His-tagged PRC2 complex (Homo sapiens (Human), UniProt O75530); assay: Hot Spot HMT assay of PRC2 enzymatic activity (tritiated methyl transfer from SAM to core histone); type: biochemical; conditions: 10 nM purified PRC2 complex, 0.05 mg/ml core histone H3, 1 uM 3H-SAM, 1 hr at 30° C.; read-out: IC50, Inhibition of PRC2-mediated Enzymatic Activity
# Sequence of purified human, His-tagged PRC2 complex (Q15910 whole entry): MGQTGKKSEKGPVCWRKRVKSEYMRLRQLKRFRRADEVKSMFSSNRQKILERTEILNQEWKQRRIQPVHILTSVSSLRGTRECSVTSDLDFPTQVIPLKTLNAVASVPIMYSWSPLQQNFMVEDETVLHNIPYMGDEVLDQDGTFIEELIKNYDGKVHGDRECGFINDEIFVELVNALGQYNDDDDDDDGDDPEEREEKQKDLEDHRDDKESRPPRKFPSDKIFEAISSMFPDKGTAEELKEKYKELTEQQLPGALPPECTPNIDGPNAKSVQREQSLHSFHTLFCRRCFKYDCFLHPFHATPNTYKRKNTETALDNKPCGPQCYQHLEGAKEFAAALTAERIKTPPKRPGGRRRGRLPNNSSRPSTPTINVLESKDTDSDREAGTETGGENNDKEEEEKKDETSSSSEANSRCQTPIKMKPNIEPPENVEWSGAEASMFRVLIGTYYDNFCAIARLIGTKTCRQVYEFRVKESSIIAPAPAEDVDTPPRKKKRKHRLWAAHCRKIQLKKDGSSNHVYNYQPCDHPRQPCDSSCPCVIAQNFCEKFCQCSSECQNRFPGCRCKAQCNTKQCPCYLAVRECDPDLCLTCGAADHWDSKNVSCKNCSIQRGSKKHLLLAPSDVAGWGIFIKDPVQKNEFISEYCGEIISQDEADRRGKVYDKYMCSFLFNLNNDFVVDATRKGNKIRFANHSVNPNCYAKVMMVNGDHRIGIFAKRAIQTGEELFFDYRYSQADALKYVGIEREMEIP
# Sequence of purified human, His-tagged PRC2 complex (O75530 whole entry): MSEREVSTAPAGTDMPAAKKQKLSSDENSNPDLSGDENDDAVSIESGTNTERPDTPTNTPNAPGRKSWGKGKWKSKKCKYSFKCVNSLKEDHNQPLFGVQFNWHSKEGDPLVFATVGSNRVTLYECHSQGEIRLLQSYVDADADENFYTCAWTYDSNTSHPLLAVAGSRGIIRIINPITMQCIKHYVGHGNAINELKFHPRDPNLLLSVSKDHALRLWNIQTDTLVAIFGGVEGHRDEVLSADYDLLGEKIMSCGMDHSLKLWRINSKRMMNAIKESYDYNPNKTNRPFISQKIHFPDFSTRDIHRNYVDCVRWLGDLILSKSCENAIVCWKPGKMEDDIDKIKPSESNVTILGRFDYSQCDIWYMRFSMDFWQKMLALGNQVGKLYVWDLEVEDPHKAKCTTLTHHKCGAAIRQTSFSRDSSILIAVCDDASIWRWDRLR
# Sequence of purified human, His-tagged PRC2 complex (Q15022 whole entry partner): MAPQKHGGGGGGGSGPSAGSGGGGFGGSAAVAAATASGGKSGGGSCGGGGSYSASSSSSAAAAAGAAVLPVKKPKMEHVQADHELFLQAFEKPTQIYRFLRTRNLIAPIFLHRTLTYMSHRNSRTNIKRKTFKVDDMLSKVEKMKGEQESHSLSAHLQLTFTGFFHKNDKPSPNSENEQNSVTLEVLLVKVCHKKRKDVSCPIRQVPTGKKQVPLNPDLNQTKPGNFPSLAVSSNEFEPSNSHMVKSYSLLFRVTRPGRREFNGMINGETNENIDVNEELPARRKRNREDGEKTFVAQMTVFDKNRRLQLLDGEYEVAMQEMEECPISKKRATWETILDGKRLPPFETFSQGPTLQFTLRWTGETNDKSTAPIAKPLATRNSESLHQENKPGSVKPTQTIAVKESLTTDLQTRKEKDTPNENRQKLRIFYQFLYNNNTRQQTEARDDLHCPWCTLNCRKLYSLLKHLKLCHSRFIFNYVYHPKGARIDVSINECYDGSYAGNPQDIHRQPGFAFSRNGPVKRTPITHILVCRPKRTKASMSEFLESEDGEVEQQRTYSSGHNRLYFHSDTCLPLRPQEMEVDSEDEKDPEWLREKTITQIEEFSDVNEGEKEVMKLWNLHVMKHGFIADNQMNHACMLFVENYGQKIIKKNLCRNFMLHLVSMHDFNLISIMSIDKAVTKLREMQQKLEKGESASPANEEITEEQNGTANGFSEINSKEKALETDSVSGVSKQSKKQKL
# Sequence of purified human, His-tagged PRC2 complex (Q6ZN18 whole entry partner): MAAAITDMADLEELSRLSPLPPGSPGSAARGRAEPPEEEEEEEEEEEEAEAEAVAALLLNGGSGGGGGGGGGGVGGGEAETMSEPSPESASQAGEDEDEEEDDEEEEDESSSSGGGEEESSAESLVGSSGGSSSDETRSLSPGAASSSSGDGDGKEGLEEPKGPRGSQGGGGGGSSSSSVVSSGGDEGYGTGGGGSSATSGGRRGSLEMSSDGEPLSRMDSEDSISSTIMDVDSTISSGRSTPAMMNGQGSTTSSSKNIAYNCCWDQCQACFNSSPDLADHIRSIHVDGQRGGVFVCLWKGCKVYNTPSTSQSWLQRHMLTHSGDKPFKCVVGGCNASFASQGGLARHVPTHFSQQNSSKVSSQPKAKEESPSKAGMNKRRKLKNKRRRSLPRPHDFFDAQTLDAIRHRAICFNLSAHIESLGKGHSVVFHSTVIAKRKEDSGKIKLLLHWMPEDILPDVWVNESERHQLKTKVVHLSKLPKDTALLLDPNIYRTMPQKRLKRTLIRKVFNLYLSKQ
# Sequence of purified human, His-tagged PRC2 complex (Q09028 whole entry partner): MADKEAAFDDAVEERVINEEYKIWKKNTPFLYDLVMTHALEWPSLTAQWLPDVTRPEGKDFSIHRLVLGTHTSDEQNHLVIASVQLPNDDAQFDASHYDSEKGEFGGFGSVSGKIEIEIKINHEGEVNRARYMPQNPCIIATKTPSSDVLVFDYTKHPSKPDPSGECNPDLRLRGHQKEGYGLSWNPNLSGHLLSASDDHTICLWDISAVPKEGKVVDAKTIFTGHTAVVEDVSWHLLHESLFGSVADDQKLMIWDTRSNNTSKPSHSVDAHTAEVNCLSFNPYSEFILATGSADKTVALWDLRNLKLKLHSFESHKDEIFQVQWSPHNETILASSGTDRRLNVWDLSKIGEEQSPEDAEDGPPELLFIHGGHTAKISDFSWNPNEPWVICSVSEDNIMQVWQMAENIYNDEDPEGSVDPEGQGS
# Experimental: Ten-point dose-response curves for compounds of the present invention were determined using a Hot Spot HMT assay (Reaction Biology Corp; see Horiuchi et al., Assay Drug Dev Technol. (2013) 4: 227-236 doi: 10.1089/adt.2012.480). The assay uses purified human, His-tagged PRC2 complex, including N-terminal His-tagged EZH2 enzyme, N-terminal Flag-tagged embryonic ectoderm development protein (EED), N-terminal His-tagged suppressor of zeste 12 (SUZ12), N-terminal His-tagged AEBP2, and N-terminal His-tagged RbAp48. In this assay, the transfer of the tritiated methyl group from radiolabeled S-adenosyl methionine (SAM) to purified core histone protein by EZH2 is quantitated after filtration to determine the activity of the core PRC2 complex in the presence and absence of compound.
# Briefly, compounds of the present invention were solubilized in DMSO and a series of 10, three-fold serial dilutions were made for each compound in 15% DMSO. The initial starting concentration for the serial dilutions of each compound was 1.0 μM. Control samples lacking compound, EZH2 enzyme or various reaction components also were prepared and processed in parallel with compound test samples. SAH (S-(5-adenosyl)-L-homocysteine) was used as a positive control for assay validation.
# An aliquot of each serial dilution of test compound was added to deep 384 well plate using Acoustic Technology instrument (Echo 550, LabCyte) containing reaction buffer (50 mM Tris-HCl (pH 8.)), 0.01% Brij35, 1 mM EDTA, 1 mM DTT, 1 mM PMSF and 1% DMSO), 10 nM purified PRC2 complex and 0.05 mg/ml core histone H3 in a 5 μl volume. The reaction was mixed gently and then pre-incubated for 20 min at 30° C. The enzymatic reaction was initiated by adding 1 uM S-Adenosyl-L-[methyl ^3H]methionine and incubated for 1 hr at 30° C. After 1 hr, the reaction product was detected using a filter binding method and the amount of tritiated H3 core histone was quantitated using a scintillation counter. The IC50 value for each compound was determined from each 10-point dose-response curve using GraphPad Prism software and the results for exemplary compounds of Formula (I) are shown in Table 5. Key: A=≤250 nM; B=>250 nM—≤500 nM; and C=>500 nM—≤2 μM.
IC50 [1],IC50 [2],IC50 [3],SMILES
< 250 nM,,< 250 nM,"Cc1cc(-c2cnc(NCc3c(F)ccc4c3CCO4)n3cc(CO)nc23)n(C)n1 [Example 1, (8-(1,3-dimethyl-1H-pyrazol-5-yl)-5-(((5-fluoro-2,3-dihydrobenzofuran-4-yl)methyl)amino)imidazo[1,2-c]pyrimidin-2-yl)methanol]"
500 to 5000 nM,,< 250 nM,"Cc1cc(S(C)(=O)=O)ccc1-c1cnc(NCc2c(F)ccc3c2CCO3)n2cc(CO)nc12 [Example 2, (5-(((5-fluoro-2,3-dihydrobenzofuran-4-yl)methyl)amino)-8-(2-methyl-4-(methylsulfonyl)phenyl)imidazo[1,2-c]pyrimidin-2-yl)methanol]"
500 to 5000 nM,,500 to 2000 nM,"Cc1ncccc1-c1cnc(NCc2c(F)ccc3c2CCO3)n2cc(CO)nc12 [Example 3, (5-(((5-fluoro-2,3-dihydrobenzofuran-4-yl)methyl)amino)-8-(2-methylpyridin-3-yl)imidazo[1,2-c]pyrimidin-2-yl)methanol]"
500 to 5000 nM,,500 to 2000 nM,"OCc1cn2c(NCc3c(F)ccc4c3CCO4)ncc(-c3ccc(C4CC4)nc3)c2n1 [Example 4, (8-(6-cyclopropylpyridin-3-yl)-5-(((5-fluoro-2,3-dihydrobenzofuran-4-yl)methyl)amino)imidazo[1,2-c]pyrimidin-2-yl)methanol]"
250 to 500 nM,,500 to 2000 nM,"COc1ccc(-c2cnc(NCc3c(F)ccc4c3CCO4)n3cc(CO)nc23)c(C)n1 [Example 5, (5-(((5-fluoro-2,3-dihydrobenzofuran-4-yl)methyl)amino)-8-(6-methoxy-2-methylpyridin-3-yl)imidazo[1,2-c]pyrimidin-2-yl)methanol]"
,< 250 nM,250 to 500 nM,"Cn1nccc1-c1cnc(NCc2c(F)ccc3c2CCO3)n2cc(CO)nc12 [Example 6, (5-(((5-fluoro-2,3-dihydrobenzofuran-4-yl)methyl)amino)-8-(1-methyl-1H-pyrazol-5-yl)imidazo[1,2-c]pyrimidin-2-yl)methanol]"
250 to 500 nM,,250 to 500 nM,"CNCc1cn2c(NCc3c(F)ccc4c3CCO4)ncc(-c3cc(C)nn3C)c2n1 [Example 25, 8-(1,3-dimethyl-1H-pyrazol-5-yl)-N-((5-fluoro-2,3-dihydrobenzofuran-4-yl)methyl)-2-((methylamino)methyl)imidazo[1,2-c]pyrimidin-5-amine]"
,,500 to 2000 nM,"Cc1cc(-c2cnc(NCc3c(F)ccc4c3CCO4)n3cc(CN(C)C)nc23)n(C)n1 [Example 26, 8-(1,3-dimethyl-1H-pyrazol-5-yl)-2-((dimethylamino)methyl)-N-((5-fluoro-2,3-dihydrobenzofuran-4-yl)methyl)imidazo[1,2-c]pyrimidin-5-amine]"

# The remaining lines, values behind:
SMILES,IC50 [1],IC50 [2],IC50 [3]
"Cc1cc(-c2cnc(NCc3c(F)ccc4c3CCO4)n3cc(C(C)N)nc23)n(C)n1 (single isomer, unassigned) [Example 11, 2-(1-aminoethyl)-8-(1,3-dimethyl-1H-pyrazol-5-yl)-N-((5-fluoro-2,3-dihydrobenzofuran-4-yl)methyl)imidazo[1,2-c]pyrimidin-5-amine]",< 250 nM,< 250 nM,500 to 2000 nM
Cc1cc(-c2cnc(NCc3c(F)ccc4c3CCO4)n3cc(C(O)c4ccccc4)nc23)n(C)n1 (centres unmarked) [Example 8],,,250 to 500 nM
"NCc1cn2c(NCc3c(F)ccc4c3CCO4)ncc(-c3cccc(F)c3)c2n1 [Example 14, 2-(aminomethyl)-N-((5-fluoro-2,3-dihydrobenzofuran-4-yl)methyl)-8-(3-fluorophenyl)imidazo[1,2-c]pyrimidin-5-amine]",500 to 5000 nM,,250 to 500 nM
"Cc1cc(-c2cnc(NCc3c(F)ccc4c3CCO4)n3cc(C(N)C(F)(F)F)nc23)n(C)n1 (centres unmarked) [Example 42, 2-(1-amino-2,2,2-trifluoroethyl)-8-(1,3-dimethyl-1H-pyrazol-5-yl)-N-((5-fluoro-2,3-dihydrobenzofuran-4-yl)methyl)imidazo[1,2-c]pyrimidin-5-amine]",,,250 to 500 nM
"Cc1cc(-c2cnc(NCc3c(F)ccc4c3CCO4)n3cc(-c4nn[nH]n4)nc23)n(C)n1 [Example 43, 8-(1,3-dimethyl-1H-pyrazol-5-yl)-N-((5-fluoro-2,3-dihydrobenzofuran-4-yl)methyl)-2-(2H-tetrazol-5-yl)imidazo[1,2-c]pyrimidin-5-amine]",,,< 250 nM
